In publication PMC6563716 (Helvetica Chimica Acta, 2019):

Target: T1, human 15-lipoxygenase-1 (15-LOX-1) (Homo sapiens, UniProt P16050)
T1 sequence (P16050 2-662): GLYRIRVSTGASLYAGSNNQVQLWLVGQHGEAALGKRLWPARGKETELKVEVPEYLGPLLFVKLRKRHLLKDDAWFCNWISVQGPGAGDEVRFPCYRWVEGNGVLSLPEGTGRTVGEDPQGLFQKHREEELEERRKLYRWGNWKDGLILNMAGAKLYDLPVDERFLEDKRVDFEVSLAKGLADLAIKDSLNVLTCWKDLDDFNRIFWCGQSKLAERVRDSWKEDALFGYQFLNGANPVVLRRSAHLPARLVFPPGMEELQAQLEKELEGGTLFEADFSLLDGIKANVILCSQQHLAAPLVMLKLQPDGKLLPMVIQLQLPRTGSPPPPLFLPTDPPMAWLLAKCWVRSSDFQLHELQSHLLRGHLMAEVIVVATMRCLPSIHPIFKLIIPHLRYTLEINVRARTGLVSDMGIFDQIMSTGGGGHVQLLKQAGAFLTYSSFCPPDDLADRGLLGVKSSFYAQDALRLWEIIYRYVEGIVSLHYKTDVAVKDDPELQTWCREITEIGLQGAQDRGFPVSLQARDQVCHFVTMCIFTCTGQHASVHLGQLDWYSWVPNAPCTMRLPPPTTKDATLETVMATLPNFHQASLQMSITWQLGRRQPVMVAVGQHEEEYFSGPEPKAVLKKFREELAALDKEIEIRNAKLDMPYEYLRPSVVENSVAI
Assay: UV absorption assay
Format: biochemical

Row | IC50 | Compound
1 | 16 ± 6 µM | CC(C)CCCC(C)CC(=O)NN=Cc1cccnc1 (racemic) [compound 17, 3,7‐Dimethyl‐N′‐[(pyridin‐3‐yl)methylidene]octanehydrazide]
2 | 59 ± 7 µM | CC(C)CCCC(C)CC(=O)NN=Cc1cccs1 (racemic) [compound 2, 3,7‐Dimethyl‐N′‐(thiophen‐2‐ylmethylene)octanehydrazide]
3 | 42 ± 4 µM | COc1cc(C=NNC(=O)CC(C)CCCC(C)C)ccc1O (racemic) [compound 4, N ′‐[(4‐Hydroxy‐3‐methoxyphenyl)methylidene]‐3,7‐dimethyloctanehydrazide]
